The values below come from patent publication US20050245399A1, “Pyrazole derivatives as herbicidal compositions containing them” (ISHIHARA SANGYO KAISHA, LTD., priority 2004, published 2005).

Structures are written as SMILES.

In one experiment the test system is corn (Zea mays L.), ZEAMX. The experiment is described as follows: Test Example 2 post-emergence (foliage treatment) herbicidal activity, ZEAMX. The format is in vivo. The note with it: 63 g a.i./ha. The procedure, abridged: (§1)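 A small sprayer delivered the diluted WP or EC formulation (500 L/ha water, 0.1% v/v spreader) over emerged seedlings in upland soil pots. Damage relative to untreated plants was graded visually from 0 to 100% three weeks or so later (days 20-23).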
In the case of `COc1c(Cl)cc(F)c(-c2nn(C)c(OC(F)F)c2Cl)c1NC(=O)c1cccc(C(F)(F)F)c1` [Compound 1-262], the “growth controlling degree, ZEAMX” value was 40%.

Another experiment relates to soybean (Glycine max Merr.): GLXMA. Nature of the experiment: Test Example 1 pre-emergence herbicidal activity, GLXMA. In kind it is in vivo. The note with it: Rate 63 g a.i./ha, visually observed 20th to 23rd day after application. The procedure, abridged:
(§2)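 Seeds go into pots of upland field soil; one day on, the diluted formulation (500 L/ha water) is sprayed pre-emergence. Effects are scored visually 20 to 23 days post-application as 0–100% growth control.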
For the compound `COc1c(Cl)cc(F)c(-c2nn(C)c(OC(F)F)c2Cl)c1NC(=O)c1cccc(C(F)(F)F)c1` [Compound 1-262], the “Pre-emergence Herbicidal Activity GLXMA (growth controlling degree)” value turned out to be 0%.

The next experiment relates to prickly sida (Sida spinosa L.): SEDSP. Nature of the experiment: Test Example 1 pre-emergence herbicidal activity, SIDSP. In kind it is in vivo. The note with it: Rate 63 g a.i./ha, visually observed 20th to 23rd day after application. The procedure, abridged:
as §2
In the case of `COc1c(Cl)cc(F)c(-c2nn(C)c(OC(F)F)c2Cl)c1NC(=O)c1cccc(C(F)(F)F)c1` [Compound 1-262], the “Pre-emergence Herbicidal Activity SIDSP (growth controlling degree)” value worked out at 30%.

A further experiment concerns corn (Zea mays L.): ZEAMX. The experiment is described as follows: Test Example 1 pre-emergence herbicidal activity, ZEAMX. In kind it is in vivo. The note with it: Rate 63 g a.i./ha, visually observed 20th to 23rd day after application. The procedure, abridged:
as §2
As to `COc1c(Cl)cc(F)c(-c2nn(C)c(OC(F)F)c2Cl)c1NC(=O)c1cccc(C(F)(F)F)c1` [Compound 1-262], the “Pre-emergence Herbicidal Activity ZEAMX (growth controlling degree)” value stood at 0%.

In a further experiment the test system is green foxtail (Setaria viridis L.), SETVI. Nature of the experiment: Test Example 2 post-emergence (foliage treatment) herbicidal activity, SETVI. The format is in vivo. The note with it: 63 g a.i./ha. The procedure, abridged:
as §1
Consider `COc1c(Cl)cc(F)c(-c2nn(C)c(OC(F)F)c2Cl)c1NC(=O)c1cccc(C(F)(F)F)c1` [Compound 1-262], for which the “growth controlling degree, SETVI” value is 80%.

The next experiment deals with green foxtail (Setaria viridis L.): SETVI. The experiment is described as follows: Test Example 1 pre-emergence herbicidal activity, SETVI. The format is in vivo. The note with it: Rate 63 g a.i./ha, visually observed 20th to 23rd day after application. The procedure, abridged:
as §2
Take `COc1c(Cl)cc(F)c(-c2nn(C)c(OC(F)F)c2Cl)c1NC(=O)c1cccc(C(F)(F)F)c1` [Compound 1-262]: the “Pre-emergence Herbicidal Activity SETVI (growth controlling degree)” value is 30%.

For a further experiment, the system named is redroot pigweed (Amaranthus retroflexus L.): AMARE. The experiment is described as follows: Test Example 1 pre-emergence herbicidal activity, AMARE. The note with it: Rate 63 g a.i./ha, visually observed 20th to 23rd day after application. In kind it is in vivo. The procedure, abridged:
as §2
On to `COc1c(Cl)cc(F)c(-c2nn(C)c(OC(F)F)c2Cl)c1NC(=O)c1cccc(C(F)(F)F)c1` [Compound 1-262], for which the “Pre-emergence Herbicidal Activity AMARE (growth controlling degree)” value worked out at 100%.

The subject of a further experiment is velvetleaf (Abutilon theophrasti), ABUTH. The experiment is described as follows: Test Example 2 post-emergence (foliage treatment) herbicidal activity, ABUTH. In kind it is in vivo. The note with it: 63 g a.i./ha. The procedure, abridged: as §1
Regarding `COc1c(Cl)cc(F)c(-c2nn(C)c(OC(F)F)c2Cl)c1NC(=O)c1cccc(C(F)(F)F)c1` [Compound 1-262], the “growth controlling degree, ABUTH” value came out at 100%.

A further experiment concerns crabgrass (Digitaria sanguinalis L.): DIGSA. The experiment is described as follows: Test Example 1 pre-emergence herbicidal activity, DIGSA. In kind it is in vivo. The note with it: Rate 63 g a.i./ha, visually observed 20th to 23rd day after application. The procedure, abridged:
as §2
Consider `COc1c(Cl)cc(F)c(-c2nn(C)c(OC(F)F)c2Cl)c1NC(=O)c1cccc(C(F)(F)F)c1` [Compound 1-262], for which the “Pre-emergence Herbicidal Activity DIGSP (growth controlling degree)” value was 30%.

The next experiment concerns soybean (Glycine max Merr.), GLXMA. The experiment is described as follows: Test Example 2 post-emergence (foliage treatment) herbicidal activity, GLXMA. In kind it is in vivo. The note with it: 63 g a.i./ha. The procedure, abridged: as §1
With `COc1c(Cl)cc(F)c(-c2nn(C)c(OC(F)F)c2Cl)c1NC(=O)c1cccc(C(F)(F)F)c1` [Compound 1-262], the “growth controlling degree, GLXMA” value is on record as 50%.

The next experiment deals with velvetleaf (Abutilon theophrasti): ABUTH. Nature of the experiment: Test Example 1 pre-emergence herbicidal activity, ABUTH. In kind it is in vivo. The note with it: Rate 63 g a.i./ha, visually observed 20th to 23rd day after application. The procedure, abridged: as §2
Take `COc1c(Cl)cc(F)c(-c2nn(C)c(OC(F)F)c2Cl)c1NC(=O)c1cccc(C(F)(F)F)c1` [Compound 1-262]: the “Pre-emergence Herbicidal Activity ABUTH (growth controlling degree)” value was found to be 20%.

The test system of a further experiment is rice (Oryza sativa L.): ORYSA. Nature of the experiment: Test Example 1 pre-emergence herbicidal activity, ORYSA. In kind it is in vivo. The note with it: Rate 63 g a.i./ha, visually observed 20th to 23rd day after application. The procedure, abridged:
as §2
In the case of `COc1c(Cl)cc(F)c(-c2nn(C)c(OC(F)F)c2Cl)c1NC(=O)c1cccc(C(F)(F)F)c1` [Compound 1-262], the “Pre-emergence Herbicidal Activity ORYSA (growth controlling degree)” value turned out to be 10%.

The next experiment concerns redroot pigweed (Amaranthus retroflexus L.), AMARE. The experiment is described as follows: Test Example 2 post-emergence (foliage treatment) herbicidal activity, AMARE. The format is in vivo. The note with it: 63 g a.i./ha. From the text:
Upland field soil was put into a 1/170,000 ha pot, and seeds of various plants were sown. Then, when the plants reached predetermined leaf stages {1. barnyardgrass (Echinochloa crus-galli L.), ECHCG: 1.1-2.1 leaf stage, 2. crabgrass (Digitaria sanguinalis L.), DIGSA: 1.0-2.0 leaf stage, 3. green foxtail (Setaria viridis L.), SETVI: 1.0-2.2 leaf stage, 4. redroot pigweed (Amaranthus retroflexus L.), AMARE: 0.1-1.5 leaf stage, 5. prickly sida (Sida spinosa L.), SIDSP: 0.1-0.6 leaf stage, 6. velvetleaf (Abutilon theophrasti), ABUTH: 0.1-0.6 leaf stage, 7. common cocklebur (Xanthium strumarium L.), XANST: 0.1 leaf stage, 8. rice (Oryza sativa L.), ORYSA; 1.0-2 leaf stage, 9. wheat (Triticum aestivum L.), TRZAX: 2.3-3.5 leaf stage, 10. corn (Zea mays L.), ZEAMXN 2.1-2.6 leaf stage, 11. soybean (Glycine max Merr.), GLXMA: primary leaf stage}, a wettable powder or emulsifiable concentrate having the compound of the present invention formulated in accordance with a usual formulation method, was weighed so that the active ingredient would be a predetermined amount, and diluted with water in an amount of 500 L/ha. To the diluted solution, 0.1% (v/v) of an agricultural spreader was added. The herbicide adjusted was applied by a small size sprayer for foliage treatment. On the 20th to 23rd day after the application of the herbicide, the growth of the respective plants was visually observed, and the herbicidal effects were evaluated by growth controlling degrees (%) ranging from 0 (equivalent to the untreated control) to 100 (complete kill), whereby the results shown in Table 5, were obtained. Compound Nos. in Table 5 correspond to Compound Nos. in Table 1 and 2 given hereinbefore.
Turning to `COc1c(Cl)cc(F)c(-c2nn(C)c(OC(F)F)c2Cl)c1NC(=O)c1cccc(C(F)(F)F)c1` [Compound 1-262], the “growth controlling degree, AMARE” value is 100%.

Another experiment relates to rice (Oryza sativa L.), ORYSA. Nature of the experiment: Test Example 2 post-emergence (foliage treatment) herbicidal activity, ORYSA. In kind it is in vivo. The note with it: 63 g a.i./ha. The procedure, abridged:
(§3)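 Sow in upland soil; grow to leaf stage (barnyardgrass 1.1-2.1, crabgrass 1.0-2.0, pigweed 0.1-1.5, rice 1.0-2); spray foliage at a fixed active ingredient rate in 500 L/ha water with 0.1% (v/v) spreader; rate growth control visually at 20-23 days on a 0-100% scale.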
Turning to `COc1c(Cl)cc(F)c(-c2nn(C)c(OC(F)F)c2Cl)c1NC(=O)c1cccc(C(F)(F)F)c1` [Compound 1-262], the “growth controlling degree, ORYSA” value is listed as 30%.

The next experiment concerns barnyardgrass (Echinochloa crus-galli L.): ECHCG. Nature of the experiment: Test Example 1 pre-emergence herbicidal activity, ECHCG. In kind it is in vivo. The note with it: Rate 63 g a.i./ha, visually observed 20th to 23rd day after application. The procedure, abridged: as §2
On to `COc1c(Cl)cc(F)c(-c2nn(C)c(OC(F)F)c2Cl)c1NC(=O)c1cccc(C(F)(F)F)c1` [Compound 1-262], for which the “Pre-emergence Herbicidal Activity ECHCG (growth controlling degree)” value was found to be 0%.

In another experiment the test system is crabgrass (Digitaria sanguinalis L.), DIGSA. The experiment is described as follows: Test Example 2 post-emergence (foliage treatment) herbicidal activity, DIGSA. The format is in vivo. The note with it: 63 g a.i./ha. The procedure, abridged: as §3
Regarding `COc1c(Cl)cc(F)c(-c2nn(C)c(OC(F)F)c2Cl)c1NC(=O)c1cccc(C(F)(F)F)c1` [Compound 1-262], the “growth controlling degree, DIGSP” value is recorded as 40%.

The next experiment has as its system wheat (Triticum aestivum L.), TRZAX. The experiment is described as follows: Test Example 2 post-emergence (foliage treatment) herbicidal activity, TRZAX. In kind it is in vivo. The note with it: 63 g a.i./ha. The procedure, abridged:
as §1
In the case of `COc1c(Cl)cc(F)c(-c2nn(C)c(OC(F)F)c2Cl)c1NC(=O)c1cccc(C(F)(F)F)c1` [Compound 1-262], the “growth controlling degree, TRZAX” value was determined as 30%.

The next experiment has as its system barnyardgrass (Echinochloa crus-galli L.), ECHCG. The experiment is described as follows: Test Example 2 post-emergence (foliage treatment) herbicidal activity, ECHCG. In kind it is in vivo. The note with it: 63 g a.i./ha. The procedure, abridged:
as §3
On to `COc1c(Cl)cc(F)c(-c2nn(C)c(OC(F)F)c2Cl)c1NC(=O)c1cccc(C(F)(F)F)c1` [Compound 1-262], for which the “growth controlling degree, ECHCO” value is on record as 60%.

A further experiment deals with wheat (Triticum aestivum L.): TRZAX. Nature of the experiment: Test Example 1 pre-emergence herbicidal activity, TRZAX. The format is in vivo. The note with it: Rate 63 g a.i./ha, visually observed 20th to 23rd day after application. The procedure, abridged:
as §2
Turning to `COc1c(Cl)cc(F)c(-c2nn(C)c(OC(F)F)c2Cl)c1NC(=O)c1cccc(C(F)(F)F)c1` [Compound 1-262], the “Pre-emergence Herbicidal Activity TRZAX (growth controlling degree)” value came out at 0%.
